Experimental findings from PubChem BioAssay (NCI) are described below.

Molecules are shown by their SMILES.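 Five concentrations, 48 hours, 96-well plates. Definition used: TGI = concentration required for complete inhibition of growth.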

Some test systems named below: ACHN renal; HOP-62 NSCLC; K-562 leukemia; M14 melanoma; MDA-MB-435; OVCAR-8 ovarian; SK-MEL-5 melanoma; SR leukemia; U251 CNS; HL-60(TB) leukemia.
Assay in all cases: DTP human tumour cell line panel, 48 h

As for `CC(=O)OC[C@@H](OC(C)=O)[C@H](OC(C)=O)[C@@H]1OC(C)(C)O[C@@H]1C1SCCCS1`, the TGI in the assay on ACHN renal, in the assay on HOP-62 NSCLC, in the assay on K-562 leukemia, with M14 melanoma, in the assay with MDA-MB-435 and in the assay on OVCAR-8 ovarian was > 100 µM each time. Moreover, the TGI in the assay on SK-MEL-5 melanoma, in the assay on SR leukemia and with U251 CNS was > 100 µM each time.
In the case of `O=[N+]([O-])c1cc2c(cc1/C=N/n1c(CO)nc3ccccc31)OCO2`, the TGI with ACHN renal, in the assay with HL-60(TB) leukemia, in the assay on HOP-62 NSCLC, in the assay with K-562 leukemia, with M14 melanoma and in the assay with MDA-MB-435 was > 100 µM in each case. Moreover, the TGI in the assay on OVCAR-8 ovarian, in the assay on SK-MEL-5 melanoma and in the assay with U251 CNS was > 100 µM throughout.
As to `O=CC12C3CCC1C2C(=O)C3` (stereo not given), the TGI in the assay on ACHN renal, with HOP-62 NSCLC, with K-562 leukemia, in the assay with M14 melanoma, in the assay with MDA-MB-435 and with OVCAR-8 ovarian was > 100 µM each time. The TGI in the assay on SK-MEL-5 melanoma, with SR leukemia and with U251 CNS was > 100 µM throughout.
Take `C/C=C/C1OC(O)(C(C)C(O)[C@H](C)C2OC(=O)/C(OC)=C/C(C)=C/[C@@H](C)[C@@H](O)[C@@H](C)C(O)C(C)C/C(C)=C/C=C/C2OC)C[C@@H](OC2CC(O)C(OC(N)=O)C(C)O2)C1C` (stereo not given in full): the TGI is 12.1 µM with ACHN renal; < 0.01 µM in the assay with HOP-62 NSCLC; < 0.01 µM in the assay with M14 melanoma; 2.58 µM in the assay with MDA-MB-435; 15.7 µM with OVCAR-8 ovarian; < 0.01 µM in the assay on SK-MEL-5 melanoma. The same compound registered a TGI with U251 CNS of 8.91 µM.
For `COc1ccc(C2SCC(=O)N2NC(=O)c2ccc(NC(C)=O)cc2)cc1` (stereo not given), the TGI in the assay with ACHN renal, with HOP-62 NSCLC, in the assay with K-562 leukemia, in the assay on M14 melanoma, in the assay on MDA-MB-435 and with OVCAR-8 ovarian was > 100 µM throughout. Besides, the TGI in the assay with SK-MEL-5 melanoma and in the assay with U251 CNS was > 100 µM in each case.
Take `N#Cc1c(-c2ccccc2)c(N=Nc2ccc(Cl)cc2)c(=O)n2c1[nH]c1ccccc12`: the TGI in the assay with ACHN renal, in the assay with HOP-62 NSCLC, in the assay with M14 melanoma, in the assay with MDA-MB-435, in the assay on OVCAR-8 ovarian and in the assay with SK-MEL-5 melanoma was > 100 µM throughout. Also, in the assay with U251 CNS, the TGI was > 100 µM.
Regarding `O=C(N/N=C(/COc1ccc([N+](=O)[O-])cc1)N=Cc1ccncc1)c1ccncc1`, the TGI in the assay on ACHN renal, with HL-60(TB) leukemia, in the assay with HOP-62 NSCLC, in the assay on K-562 leukemia, in the assay with M14 melanoma and with MDA-MB-435 was > 100 µM in each case. Further, the TGI in the assay with OVCAR-8 ovarian and with U251 CNS was > 100 µM each time.
Turning to `Clc1ccc(C(SCc2ccccc2)SCc2ccccc2)cc1`, the TGI in the assay on ACHN renal, in the assay with HL-60(TB) leukemia, in the assay on HOP-62 NSCLC, in the assay with K-562 leukemia, with M14 melanoma and in the assay on OVCAR-8 ovarian was > 10 µM throughout. Also, the TGI with SK-MEL-5 melanoma, with SR leukemia and in the assay on U251 CNS was > 10 µM throughout.
As for `CCOC(=O)/C(C#N)=C/c1ccnc2ccccc12`, the TGI is > 100 µM in the assay with ACHN renal; > 100 µM in the assay with HOP-62 NSCLC; > 100 µM with M14 melanoma; > 100 µM with MDA-MB-435; 57 µM in the assay on OVCAR-8 ovarian; > 100 µM in the assay with SK-MEL-5 melanoma. Moreover, the TGI is 64.9 µM in the assay with SR leukemia and > 100 µM with U251 CNS.
`Cc1cc(S(=O)(=O)Nc2nc(N)nc(N(C)C)n2)c(SCC(=O)O)cc1Cl`: the TGI in the assay on ACHN renal, in the assay on HL-60(TB) leukemia, in the assay on HOP-62 NSCLC, with K-562 leukemia, in the assay with M14 melanoma and in the assay with OVCAR-8 ovarian was > 10 µM throughout. Also, the TGI with SK-MEL-5 melanoma, in the assay with SR leukemia and with U251 CNS was > 10 µM each time.
Turning to `COc1ccc(N2C(=O)C3c4[nH]c5ccc(F)cc5c4C4CCC(c5ccccc5)CC4C3C2=O)cc1` (stereo not given), the TGI was determined as 74.1 µM in the assay with ACHN renal; 28.1 µM with HOP-62 NSCLC; 14.2 µM in the assay with K-562 leukemia; 45.1 µM in the assay on M14 melanoma; 53.9 µM in the assay with MDA-MB-435; 50.6 µM in the assay on OVCAR-8 ovarian. In addition, the TGI worked out at 54.2 µM with SK-MEL-5 melanoma, 36.1 µM in the assay on SR leukemia and 27.1 µM in the assay on U251 CNS.
Turning to `C=CCO[C@]1(CC=C)C(=O)C(=O)OC1C1COC(C)(C)O1` (stereo not given in full), the TGI with ACHN renal was 31.1 µM; in the assay on HOP-62 NSCLC, > 100 µM; in the assay on K-562 leukemia, > 100 µM; in the assay with MDA-MB-435 it was > 100 µM; in the assay on OVCAR-8 ovarian, 81.6 µM; in the assay on SK-MEL-5 melanoma, 97.6 µM. Moreover, the TGI was 67 µM in the assay with SR leukemia and > 100 µM in the assay on U251 CNS.
As for `CC(C)C1=CC23CCC4C(C)(C(=O)O)CCCC4(C)C2CC1C1C(=O)N(c2ccccc2)C(=O)C13` (stereo not given), the TGI in the assay on ACHN renal, in the assay on HL-60(TB) leukemia, in the assay on HOP-62 NSCLC, in the assay with K-562 leukemia, with M14 melanoma and with OVCAR-8 ovarian was > 100 µM throughout. Further, the TGI in the assay with SK-MEL-5 melanoma, in the assay on SR leukemia and in the assay with U251 CNS was > 100 µM in each case.
On to `CC1C2(C)OC(=N)C(C#N)(C(c3cccc([N+](=O)[O-])c3)O2)C1(C#N)C#N` (stereo not given), for which the TGI in the assay on ACHN renal was > 100 µM; in the assay on HL-60(TB) leukemia it was 39 µM; with K-562 leukemia, > 100 µM; in the assay with M14 melanoma, 38.7 µM; in the assay on OVCAR-8 ovarian, > 100 µM; with SK-MEL-5 melanoma, 20.9 µM. The TGI in the assay with U251 CNS came to 53.8 µM.
Consider `Oc1ccc(Cl)cc1CN1CCN(Cc2cc(Cl)ccc2O)C1`, for which the TGI is 4.25 µM in the assay on ACHN renal; 7.41 µM in the assay on HL-60(TB) leukemia; 2.79 µM in the assay with HOP-62 NSCLC; 5.86 µM in the assay with K-562 leukemia; 2.87 µM with M14 melanoma; 7.92 µM in the assay on MDA-MB-435. In addition, the TGI in the assay on OVCAR-8 ovarian was 2.21 µM; with SK-MEL-5 melanoma, 2.22 µM; in the assay on U251 CNS, 15 µM.

For orientation: TGI means the concentration giving total growth inhibition.
